The supplement of paper PMC11451515

Test system: P12-Ichikawa
Assay: cell viability relative to DMSO control; higher = less cytotoxic
Conditions: 48 h
Method in brief: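 Leukemia cells (NOMO1 or SEM, 500 cells/well; P12-Ichikawa, 1000 cells/well) were seeded in 5 μl in 1536-well plates after at least four passages of adaptation to each medium. They received library compounds in DMSO by pin dosing, 11 threefold points from 47 μM to 0.79 nM. Luminescence with CellTiter-Glo One was read after 48 h at 37°C. Viability is stated per plate relative to DMSO wells, with cell-free wells as background.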

[1] = HPLM + 10% dialyzed FBS, 0.000781 µM
[2] = HPLM + 10% dialyzed FBS, 0.00234 µM
[3] = HPLM + 10% dialyzed FBS, 0.00702 µM
[4] = HPLM + 10% dialyzed FBS, 0.0211 µM
[5] = HPLM + 10% dialyzed FBS, 0.0632 µM
[6] = HPLM + 10% dialyzed FBS, 0.19 µM
[7] = HPLM + 10% dialyzed FBS, 0.569 µM
[8] = HPLM + 10% dialyzed FBS, 1.71 µM
[9] = HPLM + 10% dialyzed FBS, 5.12 µM
[10] = HPLM + 10% dialyzed FBS, 15.4 µM
[11] = HPLM + 10% dialyzed FBS, 46.1 µM
[12] = RPMI 5 mM glucose + 10% FBS, 0.000781 µM
[13] = RPMI 5 mM glucose + 10% FBS, 0.00234 µM
[14] = RPMI 5 mM glucose + 10% FBS, 0.00702 µM
[15] = RPMI 5 mM glucose + 10% FBS, 0.0211 µM
[16] = RPMI 5 mM glucose + 10% FBS, 0.0632 µM
[17] = RPMI 5 mM glucose + 10% FBS, 0.19 µM
[18] = RPMI 5 mM glucose + 10% FBS, 0.569 µM
[19] = RPMI 5 mM glucose + 10% FBS, 1.71 µM
[20] = RPMI 5 mM glucose + 10% FBS, 5.12 µM
[21] = RPMI 5 mM glucose + 10% FBS, 15.4 µM
[22] = RPMI 5 mM glucose + 10% FBS, 46.1 µM
[23] = RPMI 5 mM glucose + 10% dialyzed FBS, 0.000781 µM
[24] = RPMI 5 mM glucose + 10% dialyzed FBS, 0.00234 µM
[25] = RPMI 5 mM glucose + 10% dialyzed FBS, 0.00702 µM
[26] = RPMI 5 mM glucose + 10% dialyzed FBS, 0.0211 µM
[27] = RPMI 5 mM glucose + 10% dialyzed FBS, 0.0632 µM
[28] = RPMI 5 mM glucose + 10% dialyzed FBS, 0.19 µM
[29] = RPMI 5 mM glucose + 10% dialyzed FBS, 0.569 µM
[30] = RPMI 5 mM glucose + 10% dialyzed FBS, 1.71 µM
[31] = RPMI 5 mM glucose + 10% dialyzed FBS, 5.12 µM
[32] = RPMI 5 mM glucose + 10% dialyzed FBS, 15.4 µM
[33] = RPMI 5 mM glucose + 10% dialyzed FBS, 46.1 µM

| SMILES | cell viability [1] | cell viability [2] | cell viability [3] | cell viability [4] | cell viability [5] | cell viability [6] | cell viability [7] | cell viability [8] | cell viability [9] | cell viability [10] | cell viability [11] | cell viability [12] | cell viability [13] | cell viability [14] | cell viability [15] | cell viability [16] | cell viability [17] | cell viability [18] | cell viability [19] | cell viability [20] | cell viability [21] | cell viability [22] | cell viability [23] | cell viability [24] | cell viability [25] | cell viability [26] | cell viability [27] | cell viability [28] | cell viability [29] | cell viability [30] | cell viability [31] | cell viability [32] | cell viability [33] |
| --- | --- | --- | --- | --- | --- | --- | --- | --- | --- | --- | --- | --- | --- | --- | --- | --- | --- | --- | --- | --- | --- | --- | --- | --- | --- | --- | --- | --- | --- | --- | --- | --- | --- |
| CC1=C(C)C2=C(S1)[N]3C(=NN=C3[C@H](CC(=O)OC(C)(C)C)/N=C2/C4=CC=C(Cl)C=C4)C | 98.4% | 98.2% | 97.1% | 100% | 92.7% | 79.5% | 39.4% | 57.7% | 35.1% | 15.4% | 6.39% | 97.6% | 90.6% | 91.5% | 97.6% | 85.8% | 81.1% | 43% | 52.4% | 37.1% | 22.4% | 13.6% | 92.2% | 92.2% | 87.8% | 95% | 90.6% | 78.9% | 39.9% | 50.4% | 40.1% | 17.3% | 7.9% |
| COc1ccc(Cn2ccc3ccc(C(=O)NO)cc32)cc1 | 116% | 121% | 119% | 87.4% | 128% | 123% | 120% | 119% | 113% | 90.3% | 44% | 108% | 114% | 120% | 65.3% | 134% | 125% | 130% | 120% | 120% | 83.5% | 52.3% | 116% | 116% | 116% | 79.9% | 126% | 126% | 129% | 119% | 114% | 87% | 55.6% |
| CCCn1c(=O)c2[nH]c(C34CC5CC3C[C@@H](C5)C4)nc2n(CCC)c1=O | 111% | 107% | 100% | 97.8% | 112% | 110% | 107% | 99.5% | 93.6% | 96.6% | 96.1% | 102% | 113% | 112% | 110% | 136% | 106% | 64.5% | 80.3% | 85.5% | 86.1% | 90% | 94.2% | 101% | 92.4% | 96.9% | 99.9% | 100% | 94.2% | 98.7% | 98% | 93.2% | 88.6% |
| COc1ccc([C@@H]2CNC(=O)C2)cc1OC1CCCC1 | 103% | 107% | 104% | 110% | 109% | 111% | 113% | 109% | 117% | 114% | 109% | 101% | 104% | 110% | 99.8% | 97.1% | 113% | 117% | 105% | 117% | 118% | 108% | 99.1% | 106% | 113% | 107% | 118% | 110% | 114% | 103% | 113% | 111% | 118% |
| CN1C(=O)COc2c(C(=O)NC3CN4CCC3CC4)cc(Cl)cc21 (stereo not given) | 87.1% | 107% | 104% | 105% | 109% | 109% | 99.6% | 96.9% | 94.2% | 107% | 111% | 95% | 115% | 110% | 119% | 132% | 73% | 66.4% | 86.1% | 95.7% | 95.6% | 121% | 95.8% | 98.4% | 101% | 97.8% | 101% | 95.4% | 98.9% | 96.9% | 92.6% | 89.2% | 99% |
| CC1(C)CC(=O)c2c(C(F)(F)F)nn(-c3ccc(C(N)=O)c(NC4CCC(OC(=O)CN)CC4)c3)c2C1 (stereo not given) | 107% | 86.9% | 96.8% | 96.5% | 102% | 88.6% | 62.2% | 42.1% | 36.4% | 36.3% | 37.9% | 83.8% | 93.7% | 91.7% | 95.4% | 99.1% | 66.3% | 35.2% | 33.2% | 29.2% | 28.8% | 27.3% | 92.9% | 92.9% | 93% | 91.9% | 89.6% | 82.4% | 41% | 32.3% | 33.3% | 28.8% | 28.5% |
| Cc1cnc(Nc2ccc(OCCN3CCCC3)cc2)nc1Nc1cccc([S+](=O)([O-])NC(C)(C)C)c1 | 100% | 108% | 110% | 110% | 115% | 111% | 119% | 114% | 112% | 108% | 112% | 110% | 116% | 110% | 119% | 120% | 116% | 120% | 117% | 110% | 108% | 112% | 91.8% | 101% | 109% | 106% | 117% | 109% | 111% | 118% | 110% | 110% | 97.6% |
| N=C(N)c1ccc(OCCCCCOc2ccc(C(=N)N)cc2)cc1 | 101% | 108% | 108% | 110% | 111% | 102% | 101% | 103% | 106% | 97.1% | 79.5% | 104% | 109% | 109% | 114% | 116% | 111% | 107% | 104% | 117% | 85.3% | 62.8% | 101% | 115% | 123% | 125% | 118% | 114% | 118% | 108% | 107% | 102% | 81.5% |
| COc1ccc2cc(-c3[nH]c(-c4ccc([S+](C)[O-])cc4)nc3-c3ccncc3)ccc2c1 (stereo not given) | 113% | 114% | 116% | 105% | 117% | 119% | 124% | 120% | 123% | 112% | 99.3% | 105% | 112% | 118% | 120% | 130% | 127% | 128% | 130% | 142% | 120% | 80.7% | 104% | 113% | 105% | 118% | 119% | 117% | 124% | 128% | 120% | 122% | 57.6% |
| Cc1ccccc1C(C(=O)NC1CCCCC1)N(C(=O)CNc1ccc(C#N)cc1)c1cccc(F)c1 (stereo not given) | 111% | 113% | 107% | 105% | 114% | 103% | 106% | 104% | 102% | 104% | 99.2% | 73.9% | 104% | 110% | 112% | 112% | 102% | 102% | 102% | 99% | 95.6% | 94.6% | 64.4% | 110% | 110% | 112% | 104% | 92.7% | 103% | 92.5% | 91.3% | 98.8% | 98.6% |
| Cl.Cl.Fc1ccc(C(OCCN2CCN(CCCc3ccccc3)CC2)c2ccc(F)cc2)cc1 | 105% | 104% | 109% | 112% | 116% | 109% | 109% | 113% | 120% | 113% | 78.4% | 114% | 133% | 118% | 123% | 136% | 126% | 126% | 124% | 122% | 124% | 73.9% | 115% | 121% | 119% | 117% | 127% | 121% | 122% | 115% | 120% | 120% | 62.8% |
| COc1cc(/C=C/C(=O)CC(=O)/C=C/c2ccc(O)c(OC)c2)ccc1O | 99.1% | 96.9% | 108% | 104% | 110% | 105% | 109% | 106% | 96.4% | 27.8% | 5.27% | 102% | 104% | 98.4% | 113% | 113% | 110% | 105% | 104% | 99.1% | 61.2% | 4.23% | 98.8% | 102% | 105% | 110% | 104% | 98.2% | 104% | 113% | 102% | 60.3% | 4.18% |
| N/C(=N\C(=O)c1nc(Cl)c(N)nc1N)NCc1ccccc1 | 101% | 106% | 105% | 103% | 108% | 105% | 108% | 108% | 101% | 98.7% | 70.9% | 84.9% | 96.9% | 83.3% | 92.1% | 99% | 103% | 106% | 95.1% | 107% | 96.5% | 58.4% | 82.5% | 94.1% | 94.1% | 88.2% | 94.4% | 101% | 103% | 106% | 98.2% | 76.1% | 51.4% |
| CC(C)(C)C1=NC2=C([NH]1)C3=CC=C(F)C=C3C4=C2\C=C/NC4=O | – | – | – | – | – | – | – | – | – | – | – | 118% | 133% | 123% | 134% | 123% | 122% | 113% | 108% | 69.7% | 17.8% | 72.1% | – | – | – | – | – | – | – | – | – | – | – |
